In patent publication US20150297605A1, “METHODS FOR TREATING CANCER USING TOR KINASE INHIBITOR COMBINATION THERAPY” (Signal Pharmaceuticals, LLC, priority 2014, published 2015):

Experiments:
Assay type in all cases: cell-based
[1] = system: HCC-1187 breast cancer cell line; test: Anti-proliferation assay, synergy score, HCC-1187; settings: in combination with Compound 1, 72 h, mean self cross score + 2σ 4.80
Description: (§1) Anti-Proliferation Assay. Cells were thawed from a liquid nitrogen preserved state. Once cells expanded and divided at their expected doubling times, screening began.
(§2) Cells were equilibrated in assay plates via centrifugation and placed in incubators attached to the Dosing Modules at 37° C. for twenty-four hours before treatment. […] These T zero (T0) plates were read using ultra-sensitive luminescence on Envision Plate Readers. Treated assay plates were incubated with compound (single compound or combination) for seventy-two hours. After seventy-two hours, platesweare developed for endpoint analysis using ATPLite. […] The calculation for synergy score is provided below.
(§3) Growth Inhibition (GI) was used as a measure of cell viability. The cell viability of vehicle was measured at the time of dosing (T0) and after seventy-two hours (T72). […] A GI 200% represents complete death of all cells in the culture well. Compounds reaching an activity plateau of GI 200% are considered cytotoxic. GI is calculated by applying the following test and equation: […]
(§4) where T is the signal measure for a test article, V is the vehicle-treated control measure, and V0 is the vehicle control measure at time zero. This formula is derived from the Growth Inhibition calculation used in the National Cancer Institute's NCI-60 high throughput screen.
(§5) Synergy Score Analysis. Synergy scores were determined using the Chalice Software (Zalicus Inc., Cambridge Mass.). […] The Synergy Score is calculated as: […]
(§6) The fractional inhibition for each component agent and combination point in the matrix was calculated relative to the median of all vehicle-treated control wells. […]
(§7) In order to objectively establish hit criteria for the combination screen analysis, twenty compounds were selected to be self-crossed across the seventeen cell line panel as a means to empirically determine a baseline additive, non-synergistic response. The identity of the twenty self-cross compounds was determined by selecting compounds with a variety of maximum response values and single agent dose response steepness.

[2] = system: BT-20 breast cancer cell line; test: Anti-proliferation assay, synergy score, BT-20; settings: in combination with Compound 1, 72 h, mean self cross score + 2σ 3.23
Description: as §1, §2, §3, §4, §5, §6, §7

[3] = system: HCC-1937 breast cancer cell line; test: Anti-proliferation assay, synergy score, HCC-1937; settings: in combination with Compound 1, 72 h, mean self cross score + 2σ 2.89
Description: as §1, §2, §3, §4, §5, §6, §7

[4] = system: HCC-1500 breast cancer cell line; test: Anti-proliferation assay, synergy score, HCC-1500; settings: in combination with Compound 1, 72 h, mean self cross score + 2σ 4.17
Description: as §1, §2, §3, §4, §5, §6, §7

[5] = system: MDA-MB-453 breast cancer cell line; test: Anti-proliferation assay, synergy score, MDA-MB-453; settings: in combination with Compound 1, 72 h, mean self cross score + 2σ 2.99
Description: as §1, §2, §3, §4, §5, §6, §7

[6] = system: BT-549 breast cancer cell line; test: Anti-proliferation assay, synergy score, BT-549; settings: in combination with Compound 1, 72 h, mean self cross score + 2σ 3.94
Description: as §1, §2, §3, §4, §5, §6, §7

[7] = system: BT-474 breast cancer cell line; test: Anti-proliferation assay, synergy score, BT-474; settings: in combination with Compound 1, 72 h, mean self cross score + 2σ 3.37
Description: as §1, §2, §3, §4, §5, §6, §7

[8] = system: MDA-MB-175-VII breast cancer cell line; test: Anti-proliferation assay, synergy score, MDA-MB-175-VII; settings: in combination with Compound 1, 72 h, mean self cross score + 2σ 2.82
Description: as §1, §2, §3, §5, §6

[9] = system: HCC-1428 breast cancer cell line; test: Anti-proliferation assay, synergy score, HCC-1428; settings: in combination with Compound 1, 72 h, mean self cross score + 2σ 3.22
Description: as §1, §2, §3, §4, §5, §6, §7

[10] = system: HCC-1806 breast cancer cell line; test: Anti-proliferation assay, synergy score, HCC-1806; settings: in combination with Compound 1, 72 h, mean self cross score + 2σ 5.05
Description: as §1, §2, §3, §4, §5, §6, §7

[11] = system: SKOV3 (ovarian cancer, romidepsin resistant cell line); test: Anti-proliferation assay (CellTiter-Glo), Bliss independence model, SKOV3; settings: combination treatment with Romidepsin, SKOV3 (R), 72 h, greater than 10% considered synergistic
Description: (§8) Anti-Proliferation Assay. […] Cells were thawed from a liquid nitrogen preserved state. Once cells were expanded and divided at their expected doubling times, screening began. Cells were seeded in their respective growth media in 96-well tissue culture treated plates at 2000 cells/well and placed in incubators at 37° C. the night before treatment. […] These T zero (T0) plates were read using luminescence on Spectramax Plate Readers. Treated assay plates were incubated with Compound for seventy-two hours. After seventy-two hours, plates were developed for endpoint analysis using CellTiter-Glo. The calculation for synergy score is provided below.
(§9) Growth Inhibition (GI) was used as a measure of cell viability. The cell viability of vehicle was measured at the time of dosing (T0) and after seventy-two hours (T72). A GI reading of 0% represents no growth inhibition—cells treated with compound and T72 vehicle signals are matched. A GI 100% represents complete growth inhibition—cells treated by compound and T0 vehicle signals are matched. […] A GI 200% represents complete death of all cells in the culture well. […] GI is calculated by applying the following test and equation: […]
(§10) We next compared the expected compound effect to the observed compound effect, and calculated the differences between the observed and the expected cell viability, expressed as % of control. […]

[12] = system: 5637 (bladder cancer, romidepsin sensitive cell line); test: Anti-proliferation assay (CellTiter-Glo), Bliss independence model, 5637; settings: combination treatment with Romidepsin, 5637 (S), 72 h, greater than 10% considered synergistic
Description: as §8, §9, §10

[13] = system: 5637 and SKOV3 cancer cell lines; test: Anti-proliferation assay (CellTiter-Glo), Bliss independence model, overall conclusion; settings: combination with romidepsin
Description: as §8, §9, §10

Compound	Synergy Score [1]	Synergy Score [2]	Synergy Score [3]	Synergy Score [4]	Synergy Score [5]	Synergy Score [6]	Synergy Score [7]	Synergy Score [8]	Synergy Score [9]	Synergy Score [10]	differences between observed and expected cell viability (% of control) [11]	differences between observed and expected cell viability (% of control) [12]	combination effect (conclusion in words) [13]
O=C(/C=C/c1cccc(S(=O)(=O)Nc2ccccc2)c1)NO [Belinostat]	4.60	9.26	14.50	4.58	14.80	9.09	6.88	3.21	7.23	11.40			
CCN1C(=O)CNc2ncc(-c3ccc(-c4nc[nH]n4)nc3C)nc21 [Compound 1, 1-ethyl-7-(2-methyl-6-(1H-1,2,4-triazol-3-yl)pyridin-3-yl)-3,4-dihydropyrazino[2,3-b]pyrazin-2(1H)-one]											23%	16%	
CO[C@H]1CC[C@H](N2C(=O)CNc3ncc(-c4ccc(C(C)(C)O)nc4)nc32)CC1 [Compound 2, 7-(6-(2-hydroxypropan-2-yl)pyridin-3-yl)-1-((1r,4r)-4-methoxycyclohexyl)-3,4-dihydropyrazino-[2,3-b]pyrazin-2(1H)-one]											27%	19%	synergism was observed
Nc1ccccc1NC(=O)c1ccc(CNC(=O)OCc2cccnc2)cc1 [MS-275]	7.64	5.84	9.75	2.18	14.60	11.80	7.79	6.71	1.65	10.00			
C/C=C1\NC(=O)[C@H]2CSSCC/C=C/[C@H](CC(=O)N[C@H](C(C)C)C(=O)N2)OC(=O)[C@H](C(C)C)NC1=O [Romidepsin, (1S,4S,7Z,10S,16E,21R)-7-ethylidene-4,21-bis(1-methylethyl)-2-oxa-12,13-dithia-5,8,20,23-tetrazabicyclo[8.7.6]tricos-16-ene-3,6,9,19,22-pentone]	6.10	8.00	12.50	4.80	13.80	12.00	6.00		4.80	8.39			
